Measurements taken from BindingDB's records for doi:10.1021/jm00036a015 (University of Minnesota, 1994).

Experiment: The binding affinity on delta-opioid receptor using [3H]- DPDPE as radioligand

SMILES	Ki [nM]
N=C(N)NCCN1CC[C@]23c4c5ccc(O)c4O[C@H]2c2[nH]c4c(c2C[C@@]3(O)[C@H]1C5)C[C@@]1(O)[C@H]2Cc3ccc(O)c5c3C1(CCN2CC1CC1)[C@H]4O5 [17-(cyclopropylmethyl)-17'-(2-guanidinoethyl-6,6',7,7'-tetradehydro-4,5:4',5'-diepoxy-6,6'-imino-7,7'-bimorphinan-3,3',14,14'-tetrol]	37
NCCN1CC[C@]23c4c5ccc(O)c4O[C@H]2c2[nH]c4c(c2C[C@@]3(O)[C@H]1C5)C[C@@]1(O)[C@H]2Cc3ccc(O)c5c3[C@@]1(CCN2CC1CC1)[C@H]4O5 [17-(cyclopropylmethyl)-17'-aminoethyl-6,6',7,7'-tetradehydro-4,5:4',5'-diepoxy-6,6'-imino-7,7'-bimorphinan-3,3',14,14'-tetrol]	137
CCCCN1CC[C@]23c4c5ccc(O)c4O[C@H]2c2[nH]c4c(c2C[C@@]3(O)[C@H]1C5)C[C@@]1(O)[C@H]2Cc3ccc(O)c5c3[C@@]1(CCN2CC1CC1)[C@H]4O5 [17-(cyclopropylmethyl)-17'-butyl-6,6',7,7'-tetradehydro-4,5:4',5'-diepoxy-6,6'-imino-7,7'-bimorphinan-3,3',14,14'-tetrol]	15
